Assay results: patent US4301313A, “Halogenated ethynyl biphenyls” (Eli-Lilly and Company, priority 1974, dated 1981)
Several values for one entry are separate records, joined by “and”; a condition that tells them apart may be missing. Equal entries are not always repeated.

Assays:
[1] = ultraviolet-induced erythema test, topical application in alcohol solution; format: in vivo, guinea pig; conditions: for Erythemic score, 1 Hr. after U.V. exposure / Erythemic score, 1.5 Hr. after U.V. exposure / Erythemic score, 2 Hr. after U.V. exposure / Erythemic score, 2.5 Hr. after U.V. exposure: unweighted; for Total erythemic score: control 78
Method: (§1) The compounds of the present invention were evaluated for anti-inflammatoryactivity by the ultraviolet-induced erythema blocking test. The test procedures were a modification of the Winder method (Winder, C. V.; Wax, J.; Burr, V.; Been, M.; and Posiere, C. E.: A Study of Pharmacological Influences on Ultraviolet Erythema in Guinea Pigs. Arch. Int. Pharmacodyn. 116: 261, 1958). Male albino guinea pigs weighing 240-300 gm. were used. The hair on the back was clipped and chemically depilated 15-18 hours before each experiment. The animals were fasted overnight, and on the day of the experiment, were randomized and placed in clear plastic partitioned holders 10×20 cm. wide and 15 cm. high.
(§2) The source of ultraviolet light was a Hanovia lamp (Kromayer-Model 10). A notebook reinforcement ring was placed upon the lens of the lamp to provide an area of contrast for grading purposes. The lens was then placed in contact with the skin of the guinea pig's back. Exposure time to UV was for a period of 4 seconds. Beginning one hour after exposure and thereafter at half-hour intervals for another 11/2 hours, the degree of resulting erythema was graded by an arbitrary scoring system based upon the degree of contrast and redness formed. Anti-inflammatory agents delay the development of the erythema and have their greatest effect at the initial grading periods. The scores were, therefore, weighted by factors of 4, 3, 2, and 1 at the 1.0, 1.5, 2.0, and 2.5 hour scoring times, respectively. The erythema was graded as follows:
(§3) Total scores from each treatment group of four guinea pigs were compared to the scores of the control group. The percent inhibition was calculated as follows: [formula] In the case of compounds showing inhibition, retesting was carried out at a plurality of doses to enable calculation of an ED50 for each such compound. "ED50 " designates that dose which provides 50% inhibition. Calculation of the ED50 was either by a standard linear regression method or by estimation from a dose-response curve of three or more points. The compounds so tested and their ED50 s were as follows:
(4-(2-Fluorophenyl)phenyl)acetylene was also evaluated for anti-inflammatory effect when applied topically. The test procedures were the same as those reported in Examples 29-52 except for three differences: the compound was applied topically in an alcohol solution immediately after exposure to the ultraviolet; scores were not weighted; and results were recorded only as percent inhibition.

[2] = ultraviolet-induced erythema test, compound administered 8 or 22 hours prior to exposure; format: in vivo, guinea pig; conditions: 0.5 mg./kg.; for Score 0.5 hours after exposure to ultraviolet: 0.5 h reading; for Score 1.0 hours after exposure to ultraviolet: 1.0 h reading; for Score 1.5 hours after exposure to ultraviolet: 1.5 h reading; for Score 2.0 hours after exposure to ultraviolet: 2.0 h reading; for Score 2.5 hours after exposure to ultraviolet: 2.5 h reading; for Score 3.0 hours after exposure to ultraviolet: 3.0 h reading
Method: as §1
The compounds to be tested were suspended in 1% methyl cellulose in water, utilizing a tissue homogenizer. The suspensions were administered orally in a volume of 2.0 ml./kg. of body weight. Control animals received an equal amount of the vehicle.
as §2, §3
(4-(2-Fluorophenyl)phenyl)acetylene was evaluated again by the procedures of Examples 29-52, except that the compound was administered 8 or 22 hours prior to exposure to ultraviolet light. The dose was uniformly 0.5 mg./kg. Readings were made at half-hour intervals beginning at one-half hour after exposure and ending at three and one-half hours after exposure. Scores were not weighted, and results were recorded only as percent inhibition.

[3] = control of inflammation in dogs (ultraviolet-induced erythema, abdominal skin); format: in vivo, dog
Method: (4-(2-Fluorophenyl)phenyl)acetylene was also evaluated for the control of inflammation in dogs. The testing procedures were the same as reported in the preceding examples except for these differences: a 10-second exposure time was used; non-pigmented abdominal skin was used; and the observed erythema was graded every half hour over a three-hour period with no weighting of scores. A placebo control was run with the same test dogs on the day prior to treatment.

[4] = adjuvant-induced arthritis test (paw volume); format: in vivo, rat (male albino); conditions: rat, oral
[5] = carrageenin-induced hind paw inflammation; format: in vivo; conditions: Rattus norvegicus
Method: (§4) Representative compounds were also evaluated for anti-inflammatory activity in the test method described by C. A. Winter at 111 Proc. Soc. Exp. Biol. Med., 544 (1962). In this method, inflammation is created by injecting carrageenin into the hind paw of rats. Test compounds are administered prior to injection to determine percent inhibition of the subsequent inflammation, in comparison with control animals.

[6] = carrageenin induced test, compound administered about 20 hours prior; format: in vivo; conditions: rat, dose 10 (unit not given), about 20 hours prior to test
Method: as §4
Each of 4-biphenylylacetylene and (4-(2-fluorophenyl)phenyl)acetylene was evaluated again in the carrageenin induced test method reported in Examples 60-80. However, in these tests, the compound was administered about 20 hours prior to the test procedures.

C#Cc1ccc(-c2ccccc2F)cc1 [(4-(2-fluorophenyl)phenyl)acetylene]
% Inhibition ([1]; 1 μg applied): 28% | Erythemic score, 1 Hr. after U.V. exposure ([1]; 1 μg applied): 6 | Erythemic score, 1.5 Hr. after U.V. exposure ([1]; 1 μg applied): 13 | Erythemic score, 2 Hr. after U.V. exposure ([1]; 1 μg applied): 18 | Erythemic score, 2.5 Hr. after U.V. exposure ([1]; 1 μg applied): 19 | Total erythemic score ([1]; 1 μg applied): 56 | % Inhibition ([1]; 10 μg applied): 41% | Erythemic score, 1 Hr. after U.V. exposure ([1]; 10 μg applied): 5 | Erythemic score, 1.5 Hr. after U.V. exposure ([1]; 10 μg applied): 10 | Erythemic score, 2 Hr. after U.V. exposure ([1]; 10 μg applied): 14 | Erythemic score, 2.5 Hr. after U.V. exposure ([1]; 10 μg applied): 17 | Total erythemic score ([1]; 10 μg applied): 46 | % Inhibition ([1]; 100 μg applied): 83% | Erythemic score, 1 Hr. after U.V. exposure ([1]; 100 μg applied): 0 | Erythemic score, 1.5 Hr. after U.V. exposure ([1]; 100 μg applied): 1 | Erythemic score, 2 Hr. after U.V. exposure ([1]; 100 μg applied): 4 | Erythemic score, 2.5 Hr. after U.V. exposure ([1]; 100 μg applied): 8 | Total erythemic score ([1]; 100 μg applied): 13 | % Erythema Inhibition ([2]; 8 hours prior to exposure): 71% | Score 0.5 hours after exposure to ultraviolet ([2]; 8 hours prior to exposure): 0 | Score 1.0 hours after exposure to ultraviolet ([2]; 8 hours prior to exposure): 0 | Score 1.5 hours after exposure to ultraviolet ([2]; 8 hours prior to exposure): 3 | Score 2.0 hours after exposure to ultraviolet ([2]; 8 hours prior to exposure): 6 | Score 2.5 hours after exposure to ultraviolet ([2]; 8 hours prior to exposure): 6 | Score 3.0 hours after exposure to ultraviolet ([2]; 8 hours prior to exposure): 15 | Total Score ([2]; 8 hours prior to exposure, control 104): 30 | % Erythema Inhibition ([2]; 22 hours prior to exposure): 41% | Score 0.5 hours after exposure to ultraviolet ([2]; 22 hours prior to exposure): 3 | Score 1.0 hours after exposure to ultraviolet ([2]; 22 hours prior to exposure): 4 | Score 1.5 hours after exposure to ultraviolet ([2]; 22 hours prior to exposure): 8 | Score 2.0 hours after exposure to ultraviolet ([2]; 22 hours prior to exposure): 14 | Score 2.5 hours after exposure to ultraviolet ([2]; 22 hours prior to exposure): 17 | Score 3.0 hours after exposure to ultraviolet ([2]; 22 hours prior to exposure): 17 | Total Score ([2]; 22 hours prior to exposure, control 107): 63 | % Erythema Inhibition ([3]; dog No. 04, 5 mg/kg): 100% | Total erythemic score ([3]; dog No. 04, 5 mg/kg, control 15): 0 | % Erythema Inhibition ([3]; dog No. 05, 1 mg/kg): 71% | Total erythemic score ([3]; dog No. 05, 1 mg/kg, control 14): 4 | % Erythema Inhibition ([3]; dog No. 05, 10 mg/kg): 100% | Total erythemic score ([3]; dog No. 05, 10 mg/kg, control 14): 0 | Percent Inhibition of Volume Increase, Day 7 ([4]; dose 1 (unit not given)): 27% and 22% | Percent Inhibition of Volume Increase, Day 7 ([4]; dose 3 (unit not given)): 35% and 29% | Percent Inhibition of Volume Increase, Day 7 ([4]; dose 10 (unit not given)): 30% and 23% | Percent Inhibition of Volume Increase, Day 14 ([4]; dose 10 (unit not given), Day 14): 5% and 0% | inhibition in vivo at 0.3 mg/kg ([5]; 0.3 mg./kg.): 21% | inhibition in vivo at 0.5 mg/kg ([5]; 0.5 mg./kg.): 6% | inhibition in vivo at 1.5 mg/kg ([5]; 1.5 mg./kg.): 29% | inhibition in vivo at 2.5 mg/kg ([5]; 2.5 mg./kg.): 35% | inhibition in vivo at 5 mg/kg ([5]; 5 mg./kg.): 43% | inhibition in vivo at 15 mg/kg ([5]; 15 mg./kg.): 56% | inhibition in vivo at 25 mg/kg ([5]; 25 mg./kg.): 65% | inhibition in vivo at 50 mg/kg ([5]; 50 mg./kg.): 57% | % Inhibition [6]: 42% and 60%
